# Results as given in patent US8962825B2, “Hydroxamates as inhibitors of histone deacetylase” (GlaxoSmithKline Intellectual Property Development Limited, priority 2006, dated 2015).
# Tests used:
# [1] = biological target: T1, histone deacetylase activity (HeLa nuclear extract); experiment: Histone deacetylase activity (Biomol Fluor de Lys HDAC fluorescent activity assay); type: biochemical; details: Fluor de Lys substrate
# T1 construct: Histone deacetylase activity from crude nuclear extract derived from HeLa cells was used for screening
# Procedure: The ability of compounds to inhibit histone deacetylase activities was measured using the commercially available HDAC fluorescent activity assay from Biomol. In brief, the Fluor de Lys™ substrate, a lysine with an epsilon-amino acetylation, is incubated with the source of histone deacetylase activity (HeLa nuclear extract) in the presence or absence of inhibitor. Deacetylation of the substrate sensitises the substrate to Fluor de Lys™ developer, which generates a fluorophore. Thus, incubation of the substrate with a source of HDAC activity results in an increase in signal that is diminished in the presence of an HDAC inhibitor.
# Data are expressed as a percentage of the control, measured in the absence of inhibitor, with background signal being subtracted from all samples, as follows: % activity=[(S^i−B)/(S^o−B)]×100 where S^i is the signal in the presence of substrate, enzyme and inhibitor, S^o is the signal in the presence of substrate, enzyme and the vehicle in which the inhibitor is dissolved, and B is the background signal measured in the absence of enzyme.
# (§1) IC50 values were determined by non-linear regression analysis, after fitting the results of eight data points to the equation for sigmoidal dose response with variable slope (% activity against log concentration of Compound), using Graphpad Prism software.
# Histone deacetylase activity from crude nuclear extract derived from HeLa cells was used for screening. The preparation, purchased from 4C (Seneffe, Belgium), was prepared from HeLa cells harvested whilst in exponential growth phase. The nuclear extract was prepared according to the methodology described by J. D. Dignam, Nucl. Acid. Res., 1983, 11, 1475-1489, snap frozen in liquid nitrogen and stored at −80° C. The final buffer composition was 20 mM Hepes, 100 mM KCl, 0.2 mM EDTA, 0.5 mM DTT, 0.2 mM PMSF and 20% (v/v) glycerol.
# HUT cells = experiment: HUT cell inhibition assay (WST-1 cell viability); type: cell-based; details: 72-96 h
# Procedure: (§2) Cancer cell lines (U937 and HUT) growing in log phase were harvested and seeded at 1000-2000 cells/well (100 μl final volume) into 96-well tissue culture plates. Following 24 h of growth cells were treated with Compound. Plates were then re-incubated for a further 72-96 h before a WST-1 cell viability assay was conducted according to the suppliers (Roche Applied Science) instructions.
# (§3) Data were expressed as a percentage inhibition of the control, measured in the absence of inhibitor, as follows: % inhibition=100−[(S^i/S^o)×100] where S^i is the signal in the presence of inhibitor and S^o is the signal in the presence of DMSO.
# (§4) Dose response curves were generated from 8 concentrations (top final concentration 10 μM, with 3-fold dilutions), using 6 replicates.
# (§5) IC50 values were determined by non-linear regression analysis, after fitting the results to the equation for sigmoidal dose response with variable slope (% activity against log concentration of Compound), using Graphpad Prism software.
# U937 cells = experiment: U937 cell inhibition assay (WST-1 cell viability); type: cell-based; details: Homo sapiens, U-937, 72-96 h
# Procedure: as §2, §3, §4, §5
# HeLa cells = experiment: HeLa cell inhibition assay (sulphorhodamine B cell viability); type: cell-based; details: Homo sapiens, 72 h, SRB
# Procedure: HeLa cells growing in log phase were harvested and seeded at 1000 cells/well (200 μl final volume) into 96-well tissue culture plates. Following 24 h of cell growth cells were treated with Compounds (final concentration of 20 μM). Plates were then re-incubated for a further 72 h before a sulphorhodamine B (SRB) cell viability assay was conducted according to the methodology described by Skehan et al, J. Natl. Canc. Inst., 1990, 82, 1107-1112.
# Data were expressed as a percentage inhibition of the control, measured in the absence of inhibitor, as follows:— % inhibition=100−[(S^i/S^o)×100] where S^i is the signal in the presence of inhibitor and S^o is the signal in the presence of DMSO.
# as §1
Compound,IC50 [1],IC50 (HUT cells),IC50 (U937 cells),IC50 (HeLa cells)
"CC(C)C[C@H](NC1CCN(c2ncc(C(=O)NO)cn2)CC1)C(=O)OC1CCCC1 [Example 1, Cyclopentyl N-{1-[5-(hydroxycarbamoyl)pyrimidin-2-yl]piperidin-4-yl}-L-leucinate]",101 to 1000 nM,331 to 3300 nM,< 330 nM,> 3300 nM
"CC(C)C[C@H](NC1CCN(c2ncc(C(=O)NO)cn2)CC1)C(=O)O [Example 2, N-{1-[5-(hydroxycarbamoyl)pyrimidin-2-yl]piperidin-4-yl}-L-leucine]",101 to 1000 nM,,,
O=C(NO)c1cnc(N2CCC(N[C@@H](CO)C(=O)OC3CCCC3)CC2)nc1 [Example 9],,331 to 3300 nM,331 to 3300 nM,> 3300 nM
CC(C)(C)OCC(NCC1C2CN(c3ncc(C(=O)NO)cn3)CC12)C(=O)OC1CCCC1 (centres unmarked) [Example 12],,331 to 3300 nM,< 330 nM,331 to 3300 nM
"O=C(NO)c1cnc(N2CC3C(CN[C@H](C(=O)OC4CCCC4)C4CCCCC4)C3C2)nc1 (stereo partly drawn) [Example 14, Cyclopentyl (2S)-cyclohexyl[({3-[5-(hydroxycarbamoyl)pyrimidin-2-yl]-3-azabicyclo[3.1.0]hex-6-yl}methyl)amino]acetate]",< 100 nM,331 to 3300 nM,331 to 3300 nM,331 to 3300 nM
"O=C(NO)c1cnc(N2CC3C(CN[C@H](C(=O)O)C4CCCCC4)C3C2)nc1 (stereo partly drawn) [Example 15, (2S)-cyclohexyl[({3-[5-(hydroxycarbamoyl)pyrimidin-2-yl]-3-azabicyclo[3.1.0]hex-6-yl}methyl)amino]acetic acid]",101 to 1000 nM,,,
CC(C)C[C@H](NCC1CCN(c2ncc(C(=O)NO)cn2)CC1)C(=O)OC1CCCC1 [Example 16],,< 330 nM,< 330 nM,331 to 3300 nM
"O=C(NO)c1cnc(N2CCC(CN[C@H](C(=O)O)C3CCCCC3)CC2)nc1 [Example 19, (2S)-cyclohexyl[({1-[5-(hydroxycarbamoyl)pyrimidin-2-yl]piperidin-4-yl}methyl)amino]acetic acid]",< 100 nM,,,
O=C(NO)c1cnc(N2CCC(CN[C@H](C(=O)OC3CCCC3)c3ccccc3)CC2)nc1 [Example 20],,331 to 3300 nM,< 330 nM,331 to 3300 nM
CC(C)(C)OC[C@H](NCC1CCN(c2ncc(C(=O)NO)cn2)CC1)C(=O)OC1CCCC1 [Example 22],,< 330 nM,< 330 nM,331 to 3300 nM
O=C(NO)c1cnc(N2CCC(CN[C@@H](CO)C(=O)OC3CCCC3)CC2)nc1 [Example 24],,< 330 nM,< 330 nM,331 to 3300 nM
O=C(NO)c1cnc(N2CCC(CN[C@H](C(=O)OC3CCCC3)c3cccc4ccccc34)CC2)nc1 [Example 26],,331 to 3300 nM,331 to 3300 nM,> 3300 nM
"CC(C)C[C@H](NCc1ccc(CNC2CCN(c3ncc(C(=O)NO)cn3)CC2)cc1)C(=O)O [Example 28, N-{-4-[({1-[5-(hydroxycarbamoyl)pyrimidin-2-yl]piperidin-4-yl}amino)methyl]benzyl}-L-leucine]",101 to 1000 nM,,,
O=C(NO)c1cnc(N2CCC(NCc3ccc(CN[C@H](C(=O)OC4CCCC4)c4ccccc4)cc3)CC2)nc1 [Example 30],< 100 nM,,,
O=C(NO)c1cnc(N2CCC(NCc3ccc(CN[C@H](C(=O)OC4CCCC4)c4ccccc4)cc3)CC2)nc1 [Example 32],101 to 1000 nM,,,
O=C(NO)c1cnc(N2CCC(NCc3ccc(CN[C@H](C(=O)OC4CCCC4)c4ccccc4)cc3)CC2)nc1 [Example 34],< 100 nM,,,
CC(C)C[C@H](NCc1ccc(CNCC2CCN(c3ncc(C(=O)NO)cn3)CC2)cc1)C(=O)OC1CCCC1 [Example 36],,< 330 nM,< 330 nM,< 330 nM
"O=C(NO)c1cnc(N2CCC(CNCc3ccc(CN[C@H](C(=O)O)C4CCCCC4)cc3)CC2)nc1 [Example 39, (2S)-cyclohexyl[(4-{[({1-[5-(hydroxycarbamoyl)pyrimidin-2-yl]piperidin-4-yl}methyl)amino]methyl}benzyl)amino]acetic acid]",< 100 nM,,,
CC(C)(C)OC[C@H](NCc1ccc(CNCC2CCN(c3ncc(C(=O)NO)cn3)CC2)cc1)C(=O)OC1CCCC1 [Example 40],,< 330 nM,< 330 nM,331 to 3300 nM
O=C(NO)c1cnc(N2CCC(CNCc3ccc(CN[C@H](C(=O)OC4CCCC4)c4ccccc4)cc3)CC2)nc1 [Example 42],,< 330 nM,< 330 nM,< 330 nM
O=C(NO)c1cnc(N2CCC(CNCc3ccc(CN[C@@H](CO)C(=O)OC4CCCC4)cc3)CC2)nc1 [Example 44],,< 330 nM,< 330 nM,331 to 3300 nM
"O=C(NO)c1cnc(N2CCC(CNCC3CCC(CN[C@H](C(=O)OC4CCCC4)C4CCCCC4)CC3)CC2)nc1 (stereo partly drawn) [Example 46, Cyclopentyl (2S)-cyclohexyl{[(4-{[({1-[5-(hydroxycarbamoyl)pyrimidin-2-yl]piperidin-4-yl}methyl)amino]methyl}cyclohexyl)methyl]amino}acetate]",101 to 1000 nM,331 to 3300 nM,331 to 3300 nM,
"O=C(NO)c1cnc(N2CCC(CNCC3CCC(CN[C@H](C(=O)O)C4CCCCC4)CC3)CC2)nc1 (stereo partly drawn) [Example 47, (2S)-cyclohexyl{[(4-{[({1-[5-(hydroxycarbamoyl)pyrimidin-2-yl]piperidin-4-yl}methyl)amino]methyl}cyclohexyl)methyl]amino}acetic acid]",< 100 nM,,,
"CC(C)C[C@H](NC1CCN(c2ccc(C(=O)NO)cc2)CC1)C(=O)OC1CCCC1 [Example 48, Cyclopentyl N-{1-[4-(hydroxycarbamoyl)phenyl]piperidin-4-yl}-L-leucinate]",> 1000 nM,> 3300 nM,331 to 3300 nM,
"CC(C)C[C@H](NC1CCN(c2ccc(C(=O)NO)cc2)CC1)C(=O)O [Example 49, N-{1-[4-(hydroxycarbamoyl)phenyl]piperidin-4-yl}-L-leucine]",> 1000 nM,,,
"O=C(NO)c1ccc(N2CCC(CN[C@H](C(=O)OC3CCCC3)C3CCCCC3)CC2)cc1 [Example 50, Cyclopentyl (2S)-cyclohexyl[({1-[4-(hydroxycarbamoyl)phenyl]piperidin-4-yl}methyl)amino]acetate]",> 1000 nM,> 3300 nM,> 3300 nM,
"O=C(NO)c1ccc(N2CCC(CN[C@H](C(=O)O)C3CCCCC3)CC2)cc1 [Example 51, (2S)-cyclohexyl[({1-[4-(hydroxycarbamoyl)phenyl]piperidin-4-yl}methyl)amino]acetic acid]",> 1000 nM,,,
"O=C(NO)c1ccc(N2CCC(CNCc3ccc(CN[C@H](C(=O)OC4CCCC4)C4CCCCC4)cc3)CC2)cc1 [Example 52, Cyclopentyl (2S)-cyclohexyl[(4-{[({1-[4-(hydroxycarbamoyl)phenyl]piperidin-4-yl}methyl)amino]methyl}benzyl)amino]acetate]",> 1000 nM,331 to 3300 nM,331 to 3300 nM,
"O=C(NO)c1ccc(N2CCC(CNCC3CCC(CN[C@H](C(=O)OC4CCCC4)C4CCCCC4)CC3)CC2)cc1 (stereo partly drawn) [Example 54, cyclopentyl (2S)-cyclohexyl{[(4-{[({1-[4-(hydroxycarbamoyl)phenyl]piperidin-4-yl}methyl)amino]methyl}cyclohexyl)methyl]amino}acetate]",> 1000 nM,331 to 3300 nM,331 to 3300 nM,
"O=C(NO)c1ccc(N2CCC(CNCC3CCC(CN[C@H](C(=O)O)C4CCCCC4)CC3)CC2)cc1 (stereo partly drawn) [Example 55, (2S)-cyclohexyl{[(4-{[({1-[4-(hydroxycarbamoyl)phenyl]piperidin-4-yl}methyl)amino]methyl}cyclohexyl)methyl]amino}acetic acid]",> 1000 nM,,,
